This is an account of results in the METLIN SMRT retention time set (Domingo-Almenara et al. 2019).

The nature of this series: gradient 5% acetonitrile 3 min, to 50% in 2 min, to 85% in 15 min, held 3 min, 100 µL/min. The settings on record: column: Zorbax Extend-C18 2.1 x 50 mm; eluents: water / acetonitrile, 0.1% formic acid. Summed up: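 Each retention time is based on an adduct peak selected computationally and verified by manual inspection. Measurements used HPLC–quadrupole time-of-flight mass spectrometry in positive and negative ionization mode on mixtures of ~100 pure standards. Chromatography ran on a Zorbax Extend-C18 column (2.1 × 50 mm, 1.8 μm) at 100 μL/min with water and acetonitrile, each containing 0.1% formic acid, and dead and dwell volumes of 40 μL and 900 μL.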
`Cc1cccc(N2CCN(C(=O)c3c(C)sc4ccn(C)c(=O)c34)CC2)c1`: the RP-LC retention time was determined as 769 s.
Then `O=C(CCCc1ccccc1)N1C[C@H]2CNC(=O)[C@]23CCCC[C@@H]13`, with 770 s.
Take `CCCN1C(=O)C2CCC(=O)N2c2ccc(C(=O)N3CCN(CC)CC3)cc21` (stereo not drawn): the RP-LC retention time was found to be 561 s.
`COC(=O)N1CCN(CCNC(=O)Cc2ccc(SC(C)C)cc2)CC1`: the RP-LC retention time is 584 s.
Then `COC(=O)c1c(-c2ccccc2)noc1NCc1ccc(C)o1`, with 989 s; and `CN1c2cc(C(=O)NCc3ccc(OC(F)(F)F)cc3)ccc2C(=O)N2CCCCC21` (stereo not drawn), with 932 s.
Then `COc1cc2c(cc1OC)[C@@H](C(=O)N(C)c1ccc(Cl)cc1)[C@@H]1CCCCN1C2=O`, with 719 s; and `Cc1ccc(CNC2=NCCNC23CCN(S(=O)(=O)c2ccc(Cl)cc2)CC3)cc1`, with 778 s; and `Cc1cccc(NC(=O)c2nc3ccccc3[nH]c2=O)c1`, with 771 s.
`Cc1nn(C2CCS(=O)(=O)C2)c(C)c1N1CCN(S(=O)(=O)c2cccnc2)CC1` (stereo not drawn) returned an RP-LC retention time of 679 s.
Then `CSc1cccc(NC(=O)Cn2cnc3c(-c4ccncc4)nsc3c2=O)c1`, with 668 s; and `CC(=O)N(C)CCc1noc(C2CN(C(=O)c3c(C)noc3C)C2)n1`, with 595 s; and `COc1ccc(CNC(=O)CN2C(=O)NC3(CCCCC3)C2=O)cc1`, with 719 s.
Regarding `Cc1ccccc1NS(=O)(=O)c1cccc(-c2nc(-c3ccccc3)no2)c1`, the RP-LC retention time is 1160 s.
The value for `COc1ccc(-c2nc3cccnc3n2C2CCN(S(=O)(=O)Cc3ccccc3)C2)cc1` (stereo not drawn) was 874 s; that for `CCN1C(=O)c2cccnc2Sc2cc(CNC(=O)c3c(OC)cccc3OC)ccc21` was 784 s.
The value for `COc1ccc(-c2nnc(COc3ccc(NC(=O)c4cccnc4Cl)cc3)o2)cc1` was 820 s; that for `CCOc1ccc(NS(=O)(=O)c2ccc(-c3c(C)noc3C)cc2)cc1` was 934 s; that for `O=S(=O)(c1cc(-c2ccno2)cs1)N(Cc1cccs1)C1CCCCC1` was 1190 s.
Then `Cc1ccc(NC(=O)Cn2nc(N3CCOCC3)c3ccccc3c2=O)cc1Cl`, with 780 s; and `O=C(Nc1ccc2c(c1)OCO2)C1CCCN(c2nnc3ccc(Cl)cn23)C1` (stereo not drawn), with 747 s.
Turning to `Cc1cccc2cc3cccc(C)c3nc12`, the RP-LC retention time stood at 696 s.
Then `CN(C(=O)Cn1cnc2c(-c3ccc(F)cc3)csc2c1=O)c1ccccc1`, with 948 s.
Then `O=C(c1cc(Cl)ccc1F)N1CCN(c2cc(-c3cccs3)[nH]n2)CC1`, with 833 s; and `Cn1ccc2ccn(CC(=O)Nc3ccccc3)c(=O)c21`, with 737 s.
The value for `CCN1CCn2cc(S(=O)(=O)N3CCCc4ccccc43)cc2C1=O` was 800 s; that for `Cc1cccc(-c2nc(-c3ccc4c(c3)oc(=O)n4C(C)C)no2)c1` was 1250 s.
In turn, `COc1ccc(NS(=O)(=O)c2cn(C(C)C)c3ncccc23)cc1Cl` came in with an RP-LC retention time of 908 s.
The value for `O=C(c1cn(-c2cc(Nc3ccccc3)ncn2)cn1)N1CCOCC1` was 676 s.
`O=C(CSc1cc(N2CCN(c3ccccc3F)CC2)ncn1)NCc1ccccc1` showed an RP-LC retention time of 1110 s.
The value for `COCCCNC(=O)c1cc(-c2ccc(OC)cc2)nc2n[nH]c(-c3ccccc3)c12` was 789 s; that for `CC1Cc2ccccc2N1C(=O)c1ccc(=O)n(CCC(=O)N2CCN(C3CCCCC3)CC2)n1` (stereo not drawn) was 654 s; that for `Cc1oc(-c2ccc(OC(C)C)cc2)nc1CSc1nc2ncccc2o1` was 1100 s.
The value for `COC(=O)CSCC(=O)Nc1nccs1` was 610 s; that for `Cn1cc(C(=O)NCc2ccc3c(c2)OCO3)c(S(=O)(=O)N2CCCCC2)n1` was 854 s.
Then `COc1cccc(-c2nnc(Cc3nc(-c4cccc(C(F)(F)F)c4)no3)o2)c1`, with 1100 s.
In turn, `COc1ccc(Cl)cc1NC(=O)NCC1(CO)CC1` had an RP-LC retention time of 684 s.
The value for `CCCCN1C(=O)c2ccccc2C(C(=O)NCCC(=O)OC)C12CCCCC2` (stereo not drawn) was 868 s; that for `O=C(CCn1ccnc1)N1CCC2(CCC(=O)N(CC3CC3)CC2)CC1` was 577 s.
`CCOCCCNC(=O)C1CCCN(c2nc3ccccc3n(Cc3ccc(C)cc3)c2=O)C1` (stereo not drawn): the RP-LC retention time is 1080 s.
Then `COc1ccc(-n2ccc(=O)c(-c3nc(-c4cc(OC)cc(OC)c4)no3)n2)cc1`, with 887 s; and `CCc1noc(NC(C)=O)c1-c1ccc(OC)c(S(=O)(=O)Nc2ccc(C)cc2)c1`, with 784 s.
Turning to `Cc1c(Cl)cccc1NC(=O)c1cnc(-c2ccccc2)nc1-c1ccncc1`, the RP-LC retention time came to 954 s.
The value for `COc1ccc(OC)c(NC(=O)N2CCCC(C)(C(=O)NCc3ccc(C)cc3)C2)c1` (stereo not drawn) was 932 s; that for `O=C1COc2ccccc2N1Cc1nc(-c2ccc(Cl)c(F)c2)no1` was 1120 s; that for `CCCCn1cc(S(=O)(=O)Nc2ccc(Cl)cc2)c2cccnc21` was 1020 s.
`CCOc1ccccc1NC(=O)N1CCC2(C1)C(=O)N(C)c1ccc(OC)cc12` (stereo not drawn) registered an RP-LC retention time of 882 s.
Then `CCc1noc(C2(NC(=O)c3ccc(Br)cc3)CCCCC2)n1`, with 1030 s; and `CCn1cc(S(=O)(=O)N2[C@H]3CC[C@@H]2c2cnc(-c4ccc(F)cc4)nc2C3)cn1`, with 900 s; and `CC(=O)Nc1cccc(C2OC(c3c(OC(C)=O)ccc4ccccc34)=NN2C(C)=O)c1` (stereo not drawn), with 838 s.
With `CCCN(CC1CC1)C(=O)[C@@H]1[C@H](c2cc(OC)c(OC)c(OC)c2)c2cc3c(cc2[C@H](O)[C@H]1CO)OCO3`, the RP-LC retention time was 740 s.
Then `Cn1nc(-c2nnc(-c3ccc(F)cc3)o2)c2c1CCN(S(=O)(=O)c1ccccc1F)C2`, with 937 s; and `O=C(NCc1ccc(F)cc1F)c1ccc(NC(=O)C2CC2)cc1N1CCOCC1`, with 798 s.
Then `CC1CCCCN1S(=O)(=O)c1ccc(C(=O)Nc2nc3c(s2)Cc2ccccc2-3)cc1` (stereo not drawn), with 1190 s; and `Cc1noc(C)c1CNC(=O)C(C)Oc1cccc(Cl)c1` (stereo not drawn), with 832 s; and `O=S(=O)(c1ccc(Cl)cc1)N1CCC(c2nc(-c3cccc(-c4ccn[nH]4)c3)no2)CC1`, with 994 s.
Then `CCn1ncc(NC(=O)c2ccc(OC)c(OC)c2)c(N2CCOCC2)c1=O`, with 722 s; and `CCCNC(=O)C1CCN(c2ccc(SCC(=O)Nc3ccc4c(c3)CCC4)nn2)CC1`, with 707 s.
The compound `O=C(CSc1nnc2c3sc(N4CCCC4)nc3ncn12)NC1CCCCC1` returned an RP-LC retention time of 767 s.
Turning to `CCc1nnc(-c2cccn2CC(=O)NCc2ccc3c(c2)OCO3)o1`, the RP-LC retention time was 743 s.
In turn, `Cc1ccc(-c2cc3c(=O)n(Cc4nc(-c5ccc(Cl)cc5)no4)ncn3n2)c(C)c1` yielded an RP-LC retention time of 1320 s.
The value for `CCOc1ccc(CNC(=O)C2CCCN(c3nnc(C)c4c(C)n(-c5ccc(C)cc5)nc34)C2)cc1` (stereo not drawn) was 785 s.
The value for `O=C(NC1CC1)C1CCCN(C(=O)c2ccccc2F)C1` (stereo not drawn) was 634 s.
The value for `O=C(Nc1cccc(Cl)c1)C1CCCN(S(=O)(=O)c2c[nH]c(C(=O)N3CCCCCC3)c2)C1` (stereo not drawn) was 964 s; that for `CC(NC(=O)c1ccco1)c1nc(-c2ccc(Oc3ccccc3)cc2)no1` (stereo not drawn) was 1030 s.
On to `c1ccc(CNc2nnc(-c3nc(C4CC4)no3)c3ccccc23)cc1`, for which the RP-LC retention time turned out to be 878 s.
For `CCNc1cc(N2CCC(CCC(=O)NCc3ccc(C)o3)CC2)ncn1`, the RP-LC retention time is 642 s.
Then `Cc1nnc(NC(=O)c2cc(C3CC3)n(C3CCS(=O)(=O)C3)n2)s1` (stereo not drawn), with 646 s; and `CCN(CC)C(=O)c1ccc(-c2nc3cc(NS(=O)(=O)c4ccc(F)cc4F)ccc3n2C)cc1`, with 710 s.
Then `CCCS(=O)(=O)NCc1ccc2c(c1)CCN2C(=O)c1ccccc1`, with 810 s; and `Cc1ccc(-c2noc(Cn3ncn4nc(-c5ccc(C)cc5C)cc4c3=O)n2)cc1`, with 1270 s; and `CC(C)(C)NS(=O)(=O)c1cc(-c2nnc(-c3ccccc3)o2)ccc1F`, with 985 s.
Then `Cc1cc(-n2nc(C)cc2C)n2nc(-c3ccc(Cl)cc3)c(C)c2n1`, with 1170 s.
In the case of `CCN(Cc1cn(C)nc1C)C(=O)c1cc2c(=O)n(CC(C)C)c3ccccc3n2n1`, the RP-LC retention time was found to be 864 s.
The value for `Cc1ccc(-c2nc(C3CC(=O)N(c4ccc(Cl)cc4)C3)no2)c(C)c1` (stereo not drawn) was 994 s.
Then `Cn1cc(-c2cc3n(n2)CCC(=O)N3CC(=O)Nc2cccc(F)c2)c2ccccc21`, with 829 s.
Then `CCc1c(C)nc2nc(-c3ccco3)nn2c1N1CCN(c2ccccn2)CC1`, with 616 s; and `CCn1c(CN2CCN(S(C)(=O)=O)CC2)nc2cc(NC(=O)CC(C)C)ccc21`, with 630 s.
